Data published in ChEMBL document CHEMBL4507288 (2021).

Key:
[1] = molecular target: Sigma intracellular receptor 2 (Homo sapiens, UniProt Q5BJF2); experiment: GPCRScan assay: inhibition of Sigma 2; set-up: radioligand conc. used [nm] 5.0, parental cells HEKT
[2] = molecular target: 5-hydroxytryptamine receptor 7 (Homo sapiens, UniProt P34969); experiment: GPCRScan assay: inhibition of 5-HT7A; set-up: radioligand conc. used [nm] 5.0 – 6.0, parental cells Stable HEK
[3] = molecular target: GABA-A receptor; anion channel (Rattus norvegicus) (UniProt O09028+P15431+P18506+P18508+P19969+P20236+P23574+P23576+P28471+P28473+P30191+P62813+P63079+P63138+Q91ZM7+Q9ES14); details: Compound concentration 10.0 uM
[4] = molecular target: Mitogen-activated protein kinase kinase kinase 6 (Homo sapiens) (UniProt O95382); details: Compound concentration 1000.0 nM
Chain of Mitogen-activated protein kinase kinase kinase 6 (Homo sapiens) (O95382 whole entry): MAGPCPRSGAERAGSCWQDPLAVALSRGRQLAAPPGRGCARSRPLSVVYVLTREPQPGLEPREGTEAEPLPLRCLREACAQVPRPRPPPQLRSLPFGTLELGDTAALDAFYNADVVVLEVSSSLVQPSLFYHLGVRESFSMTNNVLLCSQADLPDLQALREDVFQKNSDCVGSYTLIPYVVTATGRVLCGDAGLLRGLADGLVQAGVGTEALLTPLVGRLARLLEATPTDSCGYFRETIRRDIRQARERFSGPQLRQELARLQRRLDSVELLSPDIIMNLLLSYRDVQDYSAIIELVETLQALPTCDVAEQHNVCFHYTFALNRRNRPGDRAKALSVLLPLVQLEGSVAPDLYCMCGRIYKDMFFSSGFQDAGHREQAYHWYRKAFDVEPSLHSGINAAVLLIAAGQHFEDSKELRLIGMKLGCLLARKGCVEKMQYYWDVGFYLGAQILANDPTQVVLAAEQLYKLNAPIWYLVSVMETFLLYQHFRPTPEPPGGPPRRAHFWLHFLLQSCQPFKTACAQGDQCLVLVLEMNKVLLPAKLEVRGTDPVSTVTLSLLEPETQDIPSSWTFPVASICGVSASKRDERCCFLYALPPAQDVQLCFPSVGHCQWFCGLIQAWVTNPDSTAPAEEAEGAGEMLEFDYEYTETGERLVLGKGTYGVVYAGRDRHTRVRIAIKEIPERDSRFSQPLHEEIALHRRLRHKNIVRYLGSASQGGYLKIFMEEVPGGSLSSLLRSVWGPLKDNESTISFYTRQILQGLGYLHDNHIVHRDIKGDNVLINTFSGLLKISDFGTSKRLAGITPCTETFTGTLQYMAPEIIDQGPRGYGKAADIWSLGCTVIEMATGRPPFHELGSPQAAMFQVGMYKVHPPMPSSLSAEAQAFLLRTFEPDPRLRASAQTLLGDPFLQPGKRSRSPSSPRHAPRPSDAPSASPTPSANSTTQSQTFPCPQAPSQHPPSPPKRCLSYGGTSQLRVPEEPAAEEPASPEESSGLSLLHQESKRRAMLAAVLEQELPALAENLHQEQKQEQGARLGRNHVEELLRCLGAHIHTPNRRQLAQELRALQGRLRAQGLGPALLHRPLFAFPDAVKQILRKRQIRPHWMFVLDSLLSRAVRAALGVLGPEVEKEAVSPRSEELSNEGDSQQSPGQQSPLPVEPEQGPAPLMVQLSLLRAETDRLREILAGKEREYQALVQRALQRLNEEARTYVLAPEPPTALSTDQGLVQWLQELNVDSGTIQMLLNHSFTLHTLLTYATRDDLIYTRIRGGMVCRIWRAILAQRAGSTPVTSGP

[5] = molecular target: Homeodomain-interacting protein kinase 1 (Homo sapiens) (UniProt Q86Z02); details: Compound concentration 1000.0 nM
[6] = molecular target: Mitogen-activated protein kinase 3 (Homo sapiens) (UniProt P27361); details: Compound concentration 1000.0 nM
Chain of Mitogen-activated protein kinase 3 (Homo sapiens) (P27361 whole entry): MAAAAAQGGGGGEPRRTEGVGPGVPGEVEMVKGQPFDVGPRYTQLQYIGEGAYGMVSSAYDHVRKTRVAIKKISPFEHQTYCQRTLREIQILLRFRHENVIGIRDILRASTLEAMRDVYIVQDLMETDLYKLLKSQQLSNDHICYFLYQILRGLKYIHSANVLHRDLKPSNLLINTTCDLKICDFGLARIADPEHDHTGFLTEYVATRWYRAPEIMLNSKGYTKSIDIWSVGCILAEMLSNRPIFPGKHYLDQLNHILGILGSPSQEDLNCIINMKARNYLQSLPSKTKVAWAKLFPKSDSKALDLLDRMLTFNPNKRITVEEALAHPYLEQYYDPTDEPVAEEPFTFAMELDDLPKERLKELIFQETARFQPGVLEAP

[7] = molecular target: Serine/threonine-protein kinase PLK4 (Homo sapiens) (UniProt O00444); details: Compound concentration 1000.0 nM
[8] = tested on: Hepatocyte growth factor receptor (Homo sapiens), P08581 [M1250T]; details: Compound concentration 1000.0 nM
[9] = molecular target: MAP/microtubule affinity-regulating kinase 4 (Homo sapiens) (UniProt Q96L34); details: Compound concentration 1000.0 nM
[10] = molecular target: Serine/threonine-protein kinase tousled-like 1 (Homo sapiens) (UniProt Q9UKI8); details: Compound concentration 1000.0 nM
Chain of Serine/threonine-protein kinase tousled-like 1 (Homo sapiens) (Q9UKI8 whole entry): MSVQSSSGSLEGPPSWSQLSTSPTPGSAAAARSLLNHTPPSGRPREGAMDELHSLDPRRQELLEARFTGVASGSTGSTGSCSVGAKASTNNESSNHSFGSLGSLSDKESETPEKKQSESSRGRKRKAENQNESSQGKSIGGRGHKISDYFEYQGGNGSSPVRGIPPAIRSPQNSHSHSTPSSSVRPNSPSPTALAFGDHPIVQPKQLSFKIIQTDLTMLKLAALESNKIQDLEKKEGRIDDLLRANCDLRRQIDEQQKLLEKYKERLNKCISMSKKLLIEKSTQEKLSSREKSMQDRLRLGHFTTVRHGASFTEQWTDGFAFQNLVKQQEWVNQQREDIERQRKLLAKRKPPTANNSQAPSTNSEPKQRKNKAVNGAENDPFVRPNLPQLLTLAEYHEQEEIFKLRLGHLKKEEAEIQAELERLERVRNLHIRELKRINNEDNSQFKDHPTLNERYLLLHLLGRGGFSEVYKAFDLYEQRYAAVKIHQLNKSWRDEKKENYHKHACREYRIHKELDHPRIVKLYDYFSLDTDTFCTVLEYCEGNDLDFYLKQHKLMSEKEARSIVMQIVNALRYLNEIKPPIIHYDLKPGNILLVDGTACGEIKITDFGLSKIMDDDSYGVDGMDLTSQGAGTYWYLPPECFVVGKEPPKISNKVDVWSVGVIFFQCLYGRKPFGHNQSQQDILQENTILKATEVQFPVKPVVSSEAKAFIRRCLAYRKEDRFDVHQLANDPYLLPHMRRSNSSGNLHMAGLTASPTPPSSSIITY

[11] = molecular target: Serine/threonine-protein kinase PAK 1 (Homo sapiens) (UniProt Q13153); details: Compound concentration 1000.0 nM
[12] = molecular target: Serine/threonine-protein kinase MAK (Homo sapiens) (UniProt P20794); details: Compound concentration 1000.0 nM
[13] = molecular target: Serine/threonine-protein kinase TAO3 (Homo sapiens) (UniProt Q9H2K8); details: Compound concentration 1000.0 nM
[14] = tested on: Phosphatidylinositol 4,5-bisphosphate 3-kinase catalytic subunit alpha isoform (Homo sapiens), P42336 [H1047Y]; details: Compound concentration 1000.0 nM
[15] = molecular target: Receptor-interacting serine/threonine-protein kinase 1 (Homo sapiens) (UniProt Q13546); details: Compound concentration 1000.0 nM
[16] = molecular target: Tyrosine-protein kinase Tec (Homo sapiens) (UniProt P42680); details: Compound concentration 1000.0 nM
Chain of Tyrosine-protein kinase Tec (Homo sapiens) (P42680 whole entry): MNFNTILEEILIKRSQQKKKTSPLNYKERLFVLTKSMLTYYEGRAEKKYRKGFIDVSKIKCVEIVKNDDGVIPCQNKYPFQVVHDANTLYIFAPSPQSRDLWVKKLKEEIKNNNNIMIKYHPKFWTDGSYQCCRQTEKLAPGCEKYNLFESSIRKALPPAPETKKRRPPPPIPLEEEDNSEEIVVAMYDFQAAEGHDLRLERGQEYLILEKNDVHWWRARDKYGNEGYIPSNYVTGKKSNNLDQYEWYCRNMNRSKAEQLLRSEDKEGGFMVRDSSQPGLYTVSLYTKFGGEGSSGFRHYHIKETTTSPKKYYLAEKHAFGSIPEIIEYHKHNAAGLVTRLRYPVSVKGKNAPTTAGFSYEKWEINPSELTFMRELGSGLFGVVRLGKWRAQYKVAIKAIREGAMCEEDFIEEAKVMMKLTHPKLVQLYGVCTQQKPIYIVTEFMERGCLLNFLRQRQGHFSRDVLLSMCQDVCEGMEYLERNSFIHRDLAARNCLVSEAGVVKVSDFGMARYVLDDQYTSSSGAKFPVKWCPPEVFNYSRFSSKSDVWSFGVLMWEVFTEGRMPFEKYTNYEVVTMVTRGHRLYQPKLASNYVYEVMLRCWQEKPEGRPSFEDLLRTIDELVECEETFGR

[17] = molecular target: Dual specificity mitogen-activated protein kinase kinase 6 (Homo sapiens) (UniProt P52564); details: Compound concentration 1000.0 nM
[18] = molecular target: Mitogen-activated protein kinase 9 (Homo sapiens) (UniProt P45984); details: Compound concentration 1000.0 nM
[19] = molecular target: Death-associated protein kinase 2 (Homo sapiens) (UniProt Q9UIK4); details: Compound concentration 1000.0 nM
[20] = molecular target: Mitogen-activated protein kinase 7 (Homo sapiens) (UniProt Q13164); details: Compound concentration 1000.0 nM
[21] = molecular target: Serine/threonine-protein kinase PAK 2 (Homo sapiens) (UniProt Q13177); details: Compound concentration 1000.0 nM
[22] = molecular target: 5'-AMP-activated protein kinase catalytic subunit alpha-2 (Homo sapiens) (UniProt P54646); details: Compound concentration 1000.0 nM
[23] = molecular target: Wee1-like protein kinase (Homo sapiens) (UniProt P30291); details: Compound concentration 1000.0 nM
Chain of Wee1-like protein kinase (Homo sapiens) (P30291 whole entry, looked up): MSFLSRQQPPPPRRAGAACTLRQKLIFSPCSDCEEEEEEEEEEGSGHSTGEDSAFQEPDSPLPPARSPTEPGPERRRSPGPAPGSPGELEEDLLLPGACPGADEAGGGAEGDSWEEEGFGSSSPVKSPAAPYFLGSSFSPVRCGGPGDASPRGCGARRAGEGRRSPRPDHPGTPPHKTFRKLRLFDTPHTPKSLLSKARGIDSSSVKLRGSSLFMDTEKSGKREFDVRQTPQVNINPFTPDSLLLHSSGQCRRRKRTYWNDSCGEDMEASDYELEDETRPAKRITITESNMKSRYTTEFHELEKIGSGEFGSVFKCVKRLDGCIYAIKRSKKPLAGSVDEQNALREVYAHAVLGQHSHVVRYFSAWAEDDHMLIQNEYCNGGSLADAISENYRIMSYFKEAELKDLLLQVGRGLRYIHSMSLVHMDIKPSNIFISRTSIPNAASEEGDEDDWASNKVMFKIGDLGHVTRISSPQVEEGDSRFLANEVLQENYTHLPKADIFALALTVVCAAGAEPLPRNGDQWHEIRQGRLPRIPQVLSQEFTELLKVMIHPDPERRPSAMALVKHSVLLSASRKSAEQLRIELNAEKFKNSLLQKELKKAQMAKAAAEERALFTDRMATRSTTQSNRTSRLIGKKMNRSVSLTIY

[24] = molecular target: Atypical kinase COQ8A, mitochondrial (Homo sapiens) (UniProt Q8NI60); details: Compound concentration 1000.0 nM
[25] = molecular target: Serine/threonine-protein kinase WNK4 (Homo sapiens) (UniProt Q96J92); details: Compound concentration 1000.0 nM
[26] = molecular target: 1-phosphatidylinositol 3-phosphate 5-kinase (Homo sapiens) (UniProt Q9Y2I7); details: Compound concentration 1000.0 nM
[27] = molecular target: Tyrosine-protein kinase ITK/TSK (Homo sapiens) (UniProt Q08881); details: Compound concentration 1000.0 nM
[28] = tested on: Proto-oncogene tyrosine-protein kinase receptor Ret (Homo sapiens), P07949 [V804L]; details: Compound concentration 1000.0 nM
[29] = molecular target: Beta-2 adrenergic receptor (Homo sapiens) (UniProt P07550); details: Compound concentration 10.0 uM
[30] = molecular target: Protein kinase C eta type (Homo sapiens) (UniProt P24723); details: Compound concentration 1000.0 nM
[31] = molecular target: Transient receptor potential cation channel subfamily M member 6 (Homo sapiens) (UniProt Q9BX84); details: Compound concentration 1000.0 nM
[32] = tested on: Tyrosine-protein kinase ABL1 (Homo sapiens), P00519 [T315I]; details: Compound concentration 1000.0 nM
[33] = molecular target: Serine/threonine-protein kinase PAK 3 (Homo sapiens) (UniProt O75914); details: Compound concentration 1000.0 nM
[34] = tested on: Receptor-type tyrosine-protein kinase FLT3 (Homo sapiens), P36888 [D835V]; details: Compound concentration 1000.0 nM
[35] = molecular target: Ribosomal protein S6 kinase alpha-3 (Homo sapiens) (UniProt P51812); details: Compound concentration 1000.0 nM
[36] = tested on: Tyrosine-protein kinase ABL1 (Homo sapiens), P00519 [M351T]; details: Compound concentration 1000.0 nM
[37] = tested on: Epidermal growth factor receptor (Homo sapiens), P00533 [UNDEFINED MUTATION]; details: Compound concentration 1000.0 nM
[38] = molecular target: Cyclin-dependent kinase-like 5 (Homo sapiens) (UniProt O76039); details: Compound concentration 1000.0 nM
[39] = molecular target: Ephrin type-A receptor 4 (Homo sapiens) (UniProt P54764); details: Compound concentration 1000.0 nM
[40] = molecular target: Casein kinase I isoform epsilon (Homo sapiens) (UniProt P49674); details: Compound concentration 1000.0 nM
[41] = tested on: Phosphatidylinositol 4,5-bisphosphate 3-kinase catalytic subunit alpha isoform (Homo sapiens), P42336 [E542K]; details: Compound concentration 1000.0 nM
[42] = molecular target: Tyrosine-protein kinase Blk (Homo sapiens) (UniProt P51451); details: Compound concentration 1000.0 nM
Chain of Tyrosine-protein kinase Blk (Homo sapiens) (P51451 2-505 limits assumed): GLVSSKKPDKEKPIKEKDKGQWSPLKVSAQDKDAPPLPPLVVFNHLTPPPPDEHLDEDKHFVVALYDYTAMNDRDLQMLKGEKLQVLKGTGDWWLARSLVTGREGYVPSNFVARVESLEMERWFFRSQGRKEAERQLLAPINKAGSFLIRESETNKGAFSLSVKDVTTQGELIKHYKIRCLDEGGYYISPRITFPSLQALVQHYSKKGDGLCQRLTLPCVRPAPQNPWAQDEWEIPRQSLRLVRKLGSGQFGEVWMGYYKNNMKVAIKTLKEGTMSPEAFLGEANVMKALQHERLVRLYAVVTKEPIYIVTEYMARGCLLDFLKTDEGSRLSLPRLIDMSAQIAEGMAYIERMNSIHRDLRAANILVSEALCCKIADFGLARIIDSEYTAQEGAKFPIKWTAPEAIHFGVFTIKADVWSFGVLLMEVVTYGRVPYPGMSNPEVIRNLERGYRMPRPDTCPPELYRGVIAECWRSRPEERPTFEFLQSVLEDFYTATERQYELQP

[43] = molecular target: Cyclin-dependent kinase 5 (Homo sapiens) (UniProt Q00535); details: Compound concentration 1000.0 nM
Chain of Cyclin-dependent kinase 5 (Homo sapiens) (Q00535 whole entry, looked up): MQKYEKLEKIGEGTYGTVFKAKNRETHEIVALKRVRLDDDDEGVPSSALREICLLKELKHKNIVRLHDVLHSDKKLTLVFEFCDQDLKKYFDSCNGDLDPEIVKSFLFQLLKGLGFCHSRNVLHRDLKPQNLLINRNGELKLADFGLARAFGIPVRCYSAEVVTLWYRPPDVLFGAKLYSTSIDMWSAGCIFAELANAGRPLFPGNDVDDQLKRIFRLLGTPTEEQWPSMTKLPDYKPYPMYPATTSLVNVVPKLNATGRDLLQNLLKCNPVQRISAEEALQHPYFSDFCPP

Chain of 5-hydroxytryptamine receptor 7 (P34969 whole entry): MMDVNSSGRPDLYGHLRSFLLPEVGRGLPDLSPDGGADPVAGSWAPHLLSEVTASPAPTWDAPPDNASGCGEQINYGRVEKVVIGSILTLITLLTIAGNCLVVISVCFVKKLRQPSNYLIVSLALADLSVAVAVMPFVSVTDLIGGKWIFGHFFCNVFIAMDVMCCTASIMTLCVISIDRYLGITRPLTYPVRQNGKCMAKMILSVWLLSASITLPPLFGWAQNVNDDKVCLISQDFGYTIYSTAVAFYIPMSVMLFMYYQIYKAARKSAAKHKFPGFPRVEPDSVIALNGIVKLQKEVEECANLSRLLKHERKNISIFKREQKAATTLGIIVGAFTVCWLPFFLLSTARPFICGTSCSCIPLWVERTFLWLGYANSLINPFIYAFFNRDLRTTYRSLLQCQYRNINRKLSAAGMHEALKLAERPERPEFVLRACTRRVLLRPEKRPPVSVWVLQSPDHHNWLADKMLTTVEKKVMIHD

CC(C)(C)OC(=O)N1CCCC1CNC1CCC(c2cc(F)ccc2F)(S(=O)(=O)c2ccc(Cl)cc2)CC1 (centres undefined) [GSI-NC]
Ki [1]: 959 nM
Ki ([2]; read-out: Ki): 826 nM
Ki ([2]; read-out: pKi (converted)): 851 nM
inhibition [3]: 11%

O=S(=O)(NC1CCC(c2cc(F)ccc2F)(S(=O)(=O)c2ccc(Cl)cc2)CC1)C(F)(F)F (centres undefined) [MRK-560]
residual activity [4]: 82%
residual activity [5]: 100%
residual activity [6]: 100%
residual activity [7]: 100%
residual activity [8]: 84%
residual activity [9]: 100%
residual activity [10]: 100%
residual activity [11]: 93%
residual activity [12]: 100%
residual activity [13]: 100%
residual activity [14]: 100%
residual activity [15]: 100%
residual activity [16]: 100%
residual activity [17]: 100%
residual activity [18]: 73%
residual activity [19]: 96%
residual activity [20]: 92%
residual activity [21]: 100%
residual activity [22]: 96%
residual activity [23]: 90%
residual activity [24]: 99%
residual activity [25]: 100%
residual activity [26]: 60%
residual activity [27]: 97%
residual activity [28]: 84%
inhibition [29]: 9.91%
residual activity [30]: 99%
residual activity [31]: 95%
residual activity [32]: 85%
residual activity [33]: 100%
residual activity [34]: 82%
residual activity [35]: 96%
residual activity [36]: 100%
residual activity [37]: 100%
residual activity [38]: 87%
residual activity [39]: 95%
residual activity [40]: 85%
residual activity [41]: 100%
residual activity [42]: 89%
residual activity [43]: 100%
